Experimental data: patent US20240024488A1, “COMPOUNDS AND USES THEREOF” (Foghorn Therapeutics Inc., priority 2020, published 2024)

Experiments:
[1] = target: T1, HiBit-BRG1 fusion protein (Homo sapiens, UniProt P51532); experiment: HiBiT-BRG1 cell-based degradation assay (Nano-Glo HiBiT Lytic Detection, 24 h); details: HeLa cell line expressing HiBit-BRG1 and LgBit, read-out: BRG1 HiBit Degradation Maximum (%)
T1 construct: expressed in transfected cells
Outline: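 Percent degradation derived from lytic HiBiT signal, normalized to DMSO-treated cells and to cells given 2 μM of a known BRM/BRG1 degrader. The HeLa line stably expressed HiBit-BRG1 and LgBit; treatment lasted 24 h at 5000 cells per well.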

[2] = target: T2, HiBit-BRM fusion protein (Homo sapiens, UniProt P51531); experiment: HiBiT-BRM cell-based degradation assay (Nano-Glo HiBiT Lytic Detection, 24 h); details: HeLa cell line expressing HiBiT-BRM
T2 construct: expressed in transfected cells
T2 sequence (P51531 whole entry, the tested form may be a part): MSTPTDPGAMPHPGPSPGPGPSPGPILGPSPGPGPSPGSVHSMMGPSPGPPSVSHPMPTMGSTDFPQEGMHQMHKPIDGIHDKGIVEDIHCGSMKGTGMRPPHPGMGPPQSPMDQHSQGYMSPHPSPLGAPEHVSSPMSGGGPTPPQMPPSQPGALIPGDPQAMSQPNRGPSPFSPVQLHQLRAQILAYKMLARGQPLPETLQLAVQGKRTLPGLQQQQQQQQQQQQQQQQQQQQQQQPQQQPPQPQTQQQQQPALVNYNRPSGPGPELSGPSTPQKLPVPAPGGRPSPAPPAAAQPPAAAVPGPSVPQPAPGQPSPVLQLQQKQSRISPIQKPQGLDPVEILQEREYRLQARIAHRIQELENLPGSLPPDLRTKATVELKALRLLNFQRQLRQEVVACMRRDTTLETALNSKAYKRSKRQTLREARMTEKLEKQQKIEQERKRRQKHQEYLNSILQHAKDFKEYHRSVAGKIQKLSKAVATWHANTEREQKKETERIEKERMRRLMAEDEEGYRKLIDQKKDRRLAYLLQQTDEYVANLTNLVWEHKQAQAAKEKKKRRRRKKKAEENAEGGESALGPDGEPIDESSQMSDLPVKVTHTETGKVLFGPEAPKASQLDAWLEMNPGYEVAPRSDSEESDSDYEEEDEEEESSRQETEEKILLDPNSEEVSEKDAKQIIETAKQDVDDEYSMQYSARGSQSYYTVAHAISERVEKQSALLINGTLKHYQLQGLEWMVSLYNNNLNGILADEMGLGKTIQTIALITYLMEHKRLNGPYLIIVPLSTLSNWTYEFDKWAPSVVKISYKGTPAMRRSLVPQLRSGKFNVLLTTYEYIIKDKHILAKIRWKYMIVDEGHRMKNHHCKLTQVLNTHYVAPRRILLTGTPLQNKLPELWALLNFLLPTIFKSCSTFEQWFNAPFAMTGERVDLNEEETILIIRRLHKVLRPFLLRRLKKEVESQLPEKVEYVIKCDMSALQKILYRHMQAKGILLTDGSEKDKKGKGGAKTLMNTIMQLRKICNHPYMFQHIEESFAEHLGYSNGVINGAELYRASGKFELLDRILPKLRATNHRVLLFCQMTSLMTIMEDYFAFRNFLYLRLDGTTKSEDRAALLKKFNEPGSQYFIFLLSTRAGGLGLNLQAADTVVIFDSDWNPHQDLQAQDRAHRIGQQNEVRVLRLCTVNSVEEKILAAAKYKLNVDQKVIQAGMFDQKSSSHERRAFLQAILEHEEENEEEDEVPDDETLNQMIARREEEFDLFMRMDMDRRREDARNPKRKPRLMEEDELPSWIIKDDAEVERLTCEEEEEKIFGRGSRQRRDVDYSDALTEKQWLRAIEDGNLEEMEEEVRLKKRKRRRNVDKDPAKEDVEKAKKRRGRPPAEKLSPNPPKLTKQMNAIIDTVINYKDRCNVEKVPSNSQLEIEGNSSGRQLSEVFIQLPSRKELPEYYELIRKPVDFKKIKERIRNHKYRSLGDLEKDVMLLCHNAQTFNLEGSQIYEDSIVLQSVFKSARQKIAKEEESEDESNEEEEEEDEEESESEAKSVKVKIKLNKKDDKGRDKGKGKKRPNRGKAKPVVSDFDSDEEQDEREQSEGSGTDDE
Outline: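 Stable HiBiT-BRM HeLa line; 24 h compound exposure, top final 30 μM, 3-fold, 10 pts in duplicate. Lytic HiBiT/LgBiT luminescence readout. % degradation vs DMSO (0%) and 2 μM known BRM/BRG1 degrader (100%).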

T1 sequence (P51532 whole entry, the tested form may be a part): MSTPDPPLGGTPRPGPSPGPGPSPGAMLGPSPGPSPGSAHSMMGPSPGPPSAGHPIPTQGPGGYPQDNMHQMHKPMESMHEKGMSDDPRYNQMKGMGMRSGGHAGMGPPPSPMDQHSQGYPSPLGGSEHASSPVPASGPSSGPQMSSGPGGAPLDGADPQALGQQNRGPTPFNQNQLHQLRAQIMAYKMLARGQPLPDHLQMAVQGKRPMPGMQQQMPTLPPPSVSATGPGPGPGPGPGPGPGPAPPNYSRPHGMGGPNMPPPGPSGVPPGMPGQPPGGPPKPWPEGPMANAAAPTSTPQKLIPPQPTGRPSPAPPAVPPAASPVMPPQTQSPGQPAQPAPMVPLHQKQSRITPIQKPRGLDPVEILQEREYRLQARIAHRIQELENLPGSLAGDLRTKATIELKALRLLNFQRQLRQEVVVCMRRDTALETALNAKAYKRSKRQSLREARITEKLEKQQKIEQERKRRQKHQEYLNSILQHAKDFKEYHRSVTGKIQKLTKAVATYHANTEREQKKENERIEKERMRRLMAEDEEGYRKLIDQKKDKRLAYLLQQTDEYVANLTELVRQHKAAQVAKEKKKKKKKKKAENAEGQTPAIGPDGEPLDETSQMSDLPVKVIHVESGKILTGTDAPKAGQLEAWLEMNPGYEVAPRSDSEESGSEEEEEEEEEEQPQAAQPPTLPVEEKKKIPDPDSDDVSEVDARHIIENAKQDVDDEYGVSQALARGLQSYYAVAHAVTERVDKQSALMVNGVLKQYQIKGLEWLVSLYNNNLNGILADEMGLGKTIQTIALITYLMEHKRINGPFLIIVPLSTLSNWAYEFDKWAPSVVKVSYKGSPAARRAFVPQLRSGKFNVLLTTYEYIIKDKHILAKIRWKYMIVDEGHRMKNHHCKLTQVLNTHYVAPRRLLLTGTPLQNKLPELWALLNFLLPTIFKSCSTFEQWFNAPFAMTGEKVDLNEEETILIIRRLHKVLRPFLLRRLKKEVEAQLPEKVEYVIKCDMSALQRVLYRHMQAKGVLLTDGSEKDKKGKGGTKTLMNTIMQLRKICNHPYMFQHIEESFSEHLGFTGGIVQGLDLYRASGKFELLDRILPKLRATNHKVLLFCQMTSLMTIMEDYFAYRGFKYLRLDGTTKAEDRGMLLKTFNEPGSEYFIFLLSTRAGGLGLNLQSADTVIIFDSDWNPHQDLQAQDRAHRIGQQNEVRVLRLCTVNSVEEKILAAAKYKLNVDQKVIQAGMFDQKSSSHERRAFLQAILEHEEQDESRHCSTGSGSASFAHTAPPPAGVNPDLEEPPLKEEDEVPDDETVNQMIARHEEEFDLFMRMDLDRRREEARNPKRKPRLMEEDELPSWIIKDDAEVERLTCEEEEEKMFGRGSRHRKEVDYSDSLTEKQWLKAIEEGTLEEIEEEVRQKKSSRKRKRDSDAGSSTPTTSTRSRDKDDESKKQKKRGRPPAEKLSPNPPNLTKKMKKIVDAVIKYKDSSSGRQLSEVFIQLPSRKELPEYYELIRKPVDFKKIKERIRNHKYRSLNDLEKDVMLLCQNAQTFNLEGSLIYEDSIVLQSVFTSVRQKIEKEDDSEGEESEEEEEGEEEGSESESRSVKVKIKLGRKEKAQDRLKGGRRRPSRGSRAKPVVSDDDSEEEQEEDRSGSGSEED

Dmax [1] [%]	Structure (SMILES)	BRM HiBit Degradation Maximum (%) [2]
< 50	O=C1CCC(N2C(=O)c3ccc(OCCN4CCC(C(=O)N5CC(c6cc7cc(-c8ccccc8O)nnc7[nH]6)C5)CC4)cc3C2=O)C(=O)N1 (stereo not drawn) [Compound 25, 2-(2,6-dioxopiperidin-3-yl)-5-(2-(4-(3-(3-(2-hydroxyphenyl)-7H-pyrrolo[2,3-c]pyridazin-6-yl)azetidine-1-carbonyl)piperidin-1-yl)ethoxy)isoindoline-1,3-dione]	C (“C” indicates maximum degradation < 50%)
< 50	O=C1CCC(N2C(=O)c3ccc(NCCOCCOCCC(=O)N4CC(c5cc6cc(-c7ccccc7O)nnc6[nH]5)C4)cc3C2=O)C(=O)N1 (stereo not drawn) [Compound 29, 2-(2,6-dioxopiperidin-3-yl)-5-((2-(2-(3-(3-(3-(2-hydroxyphenyl)-7H-pyrrolo[2,3-c]pyridazin-6-yl)azetidin-1-yl)-3-oxopropoxy)ethoxy)ethyl)amino)isoindoline-1,3-dione]	C (“C” indicates maximum degradation < 50%)
< 50	O=C1CCC(N2C(=O)c3ccc(N4CC5(CN(CCC(=O)N6CC(c7cc8cc(-c9ccccc9O)nnc8[nH]7)C6)C5)C4)cc3C2=O)C(=O)N1 (stereo not drawn) [Compound 34, 2-(2,6-dioxopiperidin-3-yl)-5-(6-(3-(3-(3-(2-hydroxyphenyl)-7H-pyrrolo[2,3-c]pyridazin-6-yl)azetidin-1-yl)-3-oxopropyl)-2,6-diazaspiro[3.3]heptan-2-yl)isoindoline-1,3-dione]	C (“C” indicates maximum degradation < 50%)
< 50	Cc1ncsc1-c1ccc(CNC(=O)[C@@H]2C[C@@H](O)CN2C(=O)[C@@H](NC(=O)CCCCCCCC(=O)N2CC(c3c[nH]c4nnc(-c5ccccc5O)cc34)C2)C(C)(C)C)cc1 [Compound 36, (2S,4R)-4-hydroxy-1-((S)-2-(9-(3-(3-(2-hydroxyphenyl)-7H-pyrrolo[2,3-c]pyridazin-5-yl)azetidin-1-yl)-9-oxononanamido)-3,3-dimethylbutanoyl)-N-(4-(4-methylthiazol-5-yl)benzyl)pyrrolidine-2-carboxamide]	C (“C” indicates maximum degradation < 50%)
< 50	Cc1ncsc1-c1ccc(CNC(=O)[C@@H]2C[C@@H](O)CN2C(=O)[C@@H](NC(=O)CCCCCCCCCC(=O)N2CC(c3c[nH]c4nnc(-c5ccccc5O)cc34)C2)C(C)(C)C)cc1 [Compound 37, (2S,4R)-4-hydroxy-1-((S)-2-(11-(3-(3-(2-hydroxyphenyl)-7H-pyrrolo[2,3-c]pyridazin-5-yl)azetidin-1-yl)-11-oxoundecanamido)-3,3-dimethylbutanoyl)-N-(4-(4-methylthiazol-5-yl)benzyl)pyrrolidine-2-carboxamide]	C (“C” indicates maximum degradation < 50%)
< 50	Cc1ncsc1-c1ccc(CNC(=O)[C@@H]2C[C@@H](O)CN2C(=O)[C@@H](NC(=O)CCCCCCCCCCCCCC(=O)N2CC(c3c[nH]c4nnc(-c5ccccc5O)cc34)C2)C(C)(C)C)cc1 [Compound 39, (2S,4R)-4-hydroxy-1-((S)-2-(15-(3-(3-(2-hydroxyphenyl)-7H-pyrrolo[2,3-c]pyridazin-5-yl)azetidin-1-yl)-15-oxopentadecanamido)-3,3-dimethylbutanoyl)-N-(4-(4-methylthiazol-5-yl)benzyl)pyrrolidine-2-carboxamide]	C (“C” indicates maximum degradation < 50%)

Continued, compound first:

Structure (SMILES)	Dmax [1] [%]	BRM HiBit Degradation Maximum (%) [2]
O=C1CCC(N2C(=O)c3cccc(OCCOCCOCCC(=O)N4CC(c5cc6cc(-c7ccccc7O)nnc6[nH]5)C4)c3C2=O)C(=O)N1 (stereo not drawn) [Compound 23, 2-(2,6-dioxopiperidin-3-yl)-4-(2-(2-(3-(3-(3-(2-hydroxyphenyl)-7H-pyrrolo[2,3-c]pyridazin-6-yl)azetidin-1-yl)-3-oxopropoxy)ethoxy)ethoxy)isoindoline-1,3-dione]	< 50	C (“C” indicates maximum degradation < 50%)
O=C1CCC(N2C(=O)c3ccc(OCCOCCOCCC(=O)N4CC(c5cc6cc(-c7ccccc7O)nnc6[nH]5)C4)cc3C2=O)C(=O)N1 (stereo not drawn) [Compound 24, 2-(2,6-dioxopiperidin-3-yl)-5-(2-(2-(3-(3-(3-(2-hydroxyphenyl)-7H-pyrrolo[2,3-c]pyridazin-6-yl)azetidin-1-yl)-3-oxopropoxy)ethoxy)ethoxy)isoindoline-1,3-dione]	< 50	C (“C” indicates maximum degradation < 50%)
O=C1CCC(N2C(=O)c3ccc(N4CCN(CCC(=O)N5CC(c6cc7cc(-c8ccccc8O)nnc7[nH]6)C5)CC4)cc3C2=O)C(=O)N1 (stereo not drawn) [Compound 26, 2-(2,6-dioxopiperidin-3-yl)-5-(4-(3-(3-(3-(2-hydroxyphenyl)-7H-pyrrolo[2,3-c]pyridazin-6-yl)azetidin-1-yl)-3-oxopropyl)piperazin-1-yl)isoindoline-1,3-dione]	< 50	C (“C” indicates maximum degradation < 50%)
O=C1CCC(N2C(=O)c3cccc(NCCOCCOCCC(=O)N4CC(c5cc6cc(-c7ccccc7O)nnc6[nH]5)C4)c3C2=O)C(=O)N1 (stereo not drawn) [Compound 27, 2-(2,6-dioxopiperidin-3-yl)-4-((2-(2-(3-(3-(3-(2-hydroxyphenyl)-7H-pyrrolo[2,3-c]pyridazin-6-yl)azetidin-1-yl)-3-oxopropoxy)ethoxy)ethyl)amino)isoindoline-1,3-dione]	< 50	C (“C” indicates maximum degradation < 50%)
O=C1CCC(N2C(=O)c3cccc(NCCCCCCCCCCC(=O)N4CC(c5cc6cc(-c7ccccc7O)nnc6[nH]5)C4)c3C2=O)C(=O)N1 (stereo not drawn) [Compound 28, 2-(2,6-dioxopiperidin-3-yl)-4-((11-(3-(3-(2-hydroxyphenyl)-7H-pyrrolo[2,3-c]pyridazin-6-yl)azetidin-1-yl)-11-oxoundecyl)amino)isoindoline-1,3-dione]	< 50	C (“C” indicates maximum degradation < 50%)
O=C1CCC(N2C(=O)c3cccc(OCCCCCCCC(=O)N4CC(c5cc6cc(-c7ccccc7O)nnc6[nH]5)C4)c3C2=O)C(=O)N1 (stereo not drawn) [Compound 30, 2-(2,6-dioxopiperidin-3-yl)-4-((8-(3-(3-(2-hydroxyphenyl)-7H-pyrrolo[2,3-c]pyridazin-6-yl)azetidin-1-yl)-8-oxooctyl)oxy)isoindoline-1,3-dione]	< 50	C (“C” indicates maximum degradation < 50%)
O=C1CCC(N2C(=O)c3cccc(OCCCCCCC(=O)N4CC(c5cc6cc(-c7ccccc7O)nnc6[nH]5)C4)c3C2=O)C(=O)N1 (stereo not drawn) [Compound 31, 2-(2,6-dioxopiperidin-3-yl)-4-((7-(3-(3-(2-hydroxyphenyl)-7H-pyrrolo[2,3-c]pyridazin-6-yl)azetidin-1-yl)-7-oxoheptyl)oxy)isoindoline-1,3-dione]	< 50	C (“C” indicates maximum degradation < 50%)
O=C1CCC(N2C(=O)c3ccc(NCCCCCCCCCCC(=O)N4CC(c5cc6cc(-c7ccccc7O)nnc6[nH]5)C4)cc3C2=O)C(=O)N1 (stereo not drawn) [Compound 32, 2-(2,6-dioxopiperidin-3-yl)-5-((11-(3-(3-(2-hydroxyphenyl)-7H-pyrrolo[2,3-c]pyridazin-6-yl)azetidin-1-yl)-11-oxoundecyl)amino)isoindoline-1,3-dione]	< 50	C (“C” indicates maximum degradation < 50%)
O=C1CCC(N2C(=O)c3cccc(NCCCCCCCCC(=O)N4CC(c5cc6cc(-c7ccccc7O)nnc6[nH]5)C4)c3C2=O)C(=O)N1 (stereo not drawn) [Compound 33, 2-(2,6-dioxopiperidin-3-yl)-4-((9-(3-(3-(2-hydroxyphenyl)-7H-pyrrolo[2,3-c]pyridazin-6-yl)azetidin-1-yl)-9-oxononyl)amino)isoindoline-1,3-dione]	< 50	C (“C” indicates maximum degradation < 50%)
Cc1ncsc1-c1ccc(CNC(=O)[C@@H]2C[C@@H](O)CN2C(=O)[C@@H](NC(=O)CCN2CC(c3c[nH]c4nnc(-c5ccccc5O)cc34)C2)C(C)(C)C)cc1 [Compound 35, (2S,4R)-4-hydroxy-1-((S)-2-(3-(3-(3-(2-hydroxyphenyl)-7H-pyrrolo[2,3-c]pyridazin-5-yl)azetidin-1-yl)propanamido)-3,3-dimethylbutanoyl)-N-(4-(4-methylthiazol-5-yl)benzyl)pyrrolidine-2-carboxamide]	< 50	C (“C” indicates maximum degradation < 50%)
Cc1ncsc1-c1ccc(CNC(=O)[C@@H]2C[C@@H](O)CN2C(=O)[C@@H](NC(=O)CCCCCCCCCCCCCCCCC(=O)N2CC(c3c[nH]c4nnc(-c5ccccc5O)cc34)C2)C(C)(C)C)cc1 [Compound 38, (2S,4R)-4-hydroxy-1-((S)-2-(18-(3-(3-(2-hydroxyphenyl)-7H-pyrrolo[2,3-c]pyridazin-5-yl)azetidin-1-yl)-18-oxooctadecanamido)-3,3-dimethylbutanoyl)-N-(4-(4-methylthiazol-5-yl)benzyl)pyrrolidine-2-carboxamide]	< 50	C (“C” indicates maximum degradation < 50%)
Cc1ncsc1-c1ccc(CNC(=O)[C@@H]2C[C@@H](O)CN2C(=O)[C@@H](NC(=O)CCCC(=O)N2CC(c3c[nH]c4nnc(-c5ccccc5O)cc34)C2)C(C)(C)C)cc1 [Compound 40, (2S,4R)-4-hydroxy-1-((S)-2-(5-(3-(3-(2-hydroxyphenyl)-7H-pyrrolo[2,3-c]pyridazin-5-yl)azetidin-1-yl)-5-oxopentanamido)-3,3-dimethylbutanoyl)-N-(4-(4-methylthiazol-5-yl)benzyl)pyrrolidine-2-carboxamide]	< 50	C (“C” indicates maximum degradation < 50%)
